Entries after “also recorded” stand apart in the source; their conditions may differ.
Columns and labels:
[1] = tested on: mouse diaphragm (VIDD); test: Diaphragm force-frequency relationship after 6 h of mechanical ventilation (murine model of VIDD); format: in vivo, C57/BL6 mice; conditions: for protection against mechanical ventilation (force-frequency relationship): IV; for protection against mechanical ventilation (force-frequency relationship) / prevention of VIDD in murine model: mice; for prevention of VIDD in murine model: general statement
Procedure: 35 adult male mice (10 to 12 weeks old, 25 to 30 g) C57/BL6 mice were separated into five groups. Three groups were intubated with a 22-gauge angio-catheter and mechanically ventilated for 6 consecutive hours using a volume-driven small-animal ventilator (Minivent®, Harvard Apparatus, Saint-Laurent, Canada). Tidal volume was established at […] body weight with a respiratory rate of 150 breaths/min, a positive end-expiratory pressure (PEEP) level from 2 to 4 cm H2O and a fraction of inspired oxygen of 0.21. Non-spontaneous ventilation was defined as a lack of diaphragm contractile activity attested by repetitive stereotypical deflections observed in the airway pressure curve.
The mice were divided into two groups. The first group (control) received methanol, at the volume corresponding to the equivalent volume brought with 4F4t-NeuroP, intravenously (IV) infused over a 5-minute period, 20 minutes before start of MV. The second group of mice received 4F4t-NeuroP intravenously (IV) infused over a 5-minute period, 20 minutes before start of MV. The two groups were intubated and treated in an identical manner (see Matecki et al., 2016 for details^15).
At the end of the protocol of MV, the entire diaphragm was surgically excised and mice were euthanized, by exsanguination. Isometric contractile properties were assessed as described previously in detail (Matecki et al., 2016^15). The excised diaphragm strip was mounted into jacketed tissue bath chambers filled with equilibrated and oxygenated Krebs solution. The muscles were supra-maximally stimulated using square wave pulses (Model S48; Grass Instruments, West Warwick, RI). The force-frequency relationship was determined by sequentially stimulating the muscles for 600 ms at 10, 20, 30, 50, 60, 80, 100 and 120 Hz with 1 minute between each stimulation train. After measurement of contractile properties, muscles were measured at Lo (the length at which the muscle produced maximal isometric tension), dried and weighted. For comparative purposes, diaphragmatic force production was normalized for total muscle strip cross-sectional area and expressed in N·cm^−2. The total muscle strip cross-sectional area was determined by dividing muscle weight by its length and tissue density (1.056 g/cm^3).
Mice were anesthetized and mechanically ventilated for 6 hours. Mice were randomized to receive or not at the beginning of the ventilation a single IV injection of 4F4t-NeuroP at concentrations ranging from 0.01-100 μM to build a dose-response curve of the force-frequency relationship in order to define the optimal concentration.
As for 4F4t-NeuroP, VB558 was injected intravenously into the mouse at a concentration of 1 and 10 μM before ventilating the mice for 6 hours.

[2] = Pharmacokinetic study in pigs, plasmatic concentration after IV bolus; format: in vivo, piglets; conditions: single IV bolus 0.250 mg·kg^−1, 3 pigs
Procedure: In a first set of experiment, a pharmacokinetic study was performed on 3 control pig injected with a single bolus of VB558 (0.250 mg·kg^−1). Blood samples were collected every regularly during 12 hours to evaluate the plasmatic concentration of VB558. […] In order to test the preventing effect of VB558 in the piglet model, the protocol of IV injection was slightly adapted to the duration of the mechanical ventilation (i.e 72 hours). The inventors injected a bolus of 0.250 mg·kg^−1 then a maintenance dose of 0.025 mg·kg^−1 every 12 hours (FIG. 5B). The VB558 group was compared to a group of piglets (placebo) receiving the same amount of solvent (methanol) (FIG. 5B).

[3] = tested on: prostanoid receptors; test: In vitro binding assay on prostanoid receptors (agonist or antagonist effect); conditions: effects higher than 50% considered significant
Text: Prostaglandin (or prostanoid) receptors represent a family of cell surface membrane receptors known to bind and respond principally to metabolites of the polyunsaturated fatty acid (PUFA), arachidonic acid. As some of them are known to modulate cAMP production or intracellular calcium concentration, and based on the chemical structure of neuroprostanes (i.e DHA derivatives), the inventors performed an in vitro binding assay to specifically evaluate the potential agonist or antagonist effect of VB558 on established prostanoid receptors. Results showing an inhibition (or stimulation for assays run in basal conditions) higher than 50% are considered to represent significant effects of the test compounds.

[4] = tested on: ventricular cardiomyocytes derived from DMD hIPSc (RyR2); test: Diastolic level of calcium in ventricular cardiomyocytes derived from DMD hIPSc (indo-1); format: cell-based, human
Procedure: FIG. 6: Effect of Hexanor on the diastolic level of Calcium in ventricular cardiomyocytes derived from DMD and control hIPSc. The cardiomyocytes were loaded with indo-1 to assess in a ratiometric manner the intracellular level of calcium. […] A. The level of calcium is higher in DMD compared to control cells. This is prevented by hexanor (1 μM).
The inventors then tested the impact of VB558 on the diastolic level of Calcium in ventricular cardiomyocytes derived from Duchenne muscular dystrophy (DMD).

[5] = biological target: T1, RyR1 (Mus musculus, UniProt E9PZQ0); test: Ca2+ sparks frequency in saponin skinned EDL muscle fibres of post myocardial infarction (PMI) mice; format: cell-based; conditions: 1 μM 4F4t-NeuroP, acute incubation; EDL fibres from PMI mice
T1 construct: Fluo-4 Ca2+ sparks

[6] = tested on: mouse diaphragm muscle fibers; test: Diaphragm muscle fibre atrophy (cross section area, fibre type) after 12 hours of mechanical ventilation in mice; format: in vivo; conditions: 10 μM, 12 h MV
Procedure: FIG. 3: A. Force frequency relationship of mice diaphragm muscle, after 12 hours of mechanical ventilation, treated or not with 10 μM 4F4t-NeuroP. […] Representative immunostaining of fast and slow diaphragm muscle fibers in mouse. Antibodies against fast- and slow-type myosin ATPase were used to perform immunostaining on cryosections of mouse diaphragm. Muscle membrane was counterstained with dystrophin antibodies. The staining was performed in diaphragm muscle 12 h after MV with or without 4F4t-NeuroP. Average cross-section area was quantified in each condition including all fibre type (B.) or by discriminating slow versus fast fibres (C.). D. Average distribution of Fast versus Slow twitch fibres in each condition. (*p<0.05 vs control)
6 hours of MV remains a rather short time of ventilation which represents a particular interest to explore proximal pathophysiological mechanisms of VIDD. As previously reported, 6 hours of mechanical ventilation is able to induce force deficit without histological alterations. However, 12 hours of mechanical ventilation can induce muscle atrophy by a mechanism mediated by RyR1 dependent SR Ca^2+-leak. The inventors therefore tested here the beneficial effect of 4F4t-NeuroP after 12 hours of mechanical ventilation.

[7] = tested on: RyR2; conditions: cited from earlier work

T1 sequence (E9PZQ0 whole entry): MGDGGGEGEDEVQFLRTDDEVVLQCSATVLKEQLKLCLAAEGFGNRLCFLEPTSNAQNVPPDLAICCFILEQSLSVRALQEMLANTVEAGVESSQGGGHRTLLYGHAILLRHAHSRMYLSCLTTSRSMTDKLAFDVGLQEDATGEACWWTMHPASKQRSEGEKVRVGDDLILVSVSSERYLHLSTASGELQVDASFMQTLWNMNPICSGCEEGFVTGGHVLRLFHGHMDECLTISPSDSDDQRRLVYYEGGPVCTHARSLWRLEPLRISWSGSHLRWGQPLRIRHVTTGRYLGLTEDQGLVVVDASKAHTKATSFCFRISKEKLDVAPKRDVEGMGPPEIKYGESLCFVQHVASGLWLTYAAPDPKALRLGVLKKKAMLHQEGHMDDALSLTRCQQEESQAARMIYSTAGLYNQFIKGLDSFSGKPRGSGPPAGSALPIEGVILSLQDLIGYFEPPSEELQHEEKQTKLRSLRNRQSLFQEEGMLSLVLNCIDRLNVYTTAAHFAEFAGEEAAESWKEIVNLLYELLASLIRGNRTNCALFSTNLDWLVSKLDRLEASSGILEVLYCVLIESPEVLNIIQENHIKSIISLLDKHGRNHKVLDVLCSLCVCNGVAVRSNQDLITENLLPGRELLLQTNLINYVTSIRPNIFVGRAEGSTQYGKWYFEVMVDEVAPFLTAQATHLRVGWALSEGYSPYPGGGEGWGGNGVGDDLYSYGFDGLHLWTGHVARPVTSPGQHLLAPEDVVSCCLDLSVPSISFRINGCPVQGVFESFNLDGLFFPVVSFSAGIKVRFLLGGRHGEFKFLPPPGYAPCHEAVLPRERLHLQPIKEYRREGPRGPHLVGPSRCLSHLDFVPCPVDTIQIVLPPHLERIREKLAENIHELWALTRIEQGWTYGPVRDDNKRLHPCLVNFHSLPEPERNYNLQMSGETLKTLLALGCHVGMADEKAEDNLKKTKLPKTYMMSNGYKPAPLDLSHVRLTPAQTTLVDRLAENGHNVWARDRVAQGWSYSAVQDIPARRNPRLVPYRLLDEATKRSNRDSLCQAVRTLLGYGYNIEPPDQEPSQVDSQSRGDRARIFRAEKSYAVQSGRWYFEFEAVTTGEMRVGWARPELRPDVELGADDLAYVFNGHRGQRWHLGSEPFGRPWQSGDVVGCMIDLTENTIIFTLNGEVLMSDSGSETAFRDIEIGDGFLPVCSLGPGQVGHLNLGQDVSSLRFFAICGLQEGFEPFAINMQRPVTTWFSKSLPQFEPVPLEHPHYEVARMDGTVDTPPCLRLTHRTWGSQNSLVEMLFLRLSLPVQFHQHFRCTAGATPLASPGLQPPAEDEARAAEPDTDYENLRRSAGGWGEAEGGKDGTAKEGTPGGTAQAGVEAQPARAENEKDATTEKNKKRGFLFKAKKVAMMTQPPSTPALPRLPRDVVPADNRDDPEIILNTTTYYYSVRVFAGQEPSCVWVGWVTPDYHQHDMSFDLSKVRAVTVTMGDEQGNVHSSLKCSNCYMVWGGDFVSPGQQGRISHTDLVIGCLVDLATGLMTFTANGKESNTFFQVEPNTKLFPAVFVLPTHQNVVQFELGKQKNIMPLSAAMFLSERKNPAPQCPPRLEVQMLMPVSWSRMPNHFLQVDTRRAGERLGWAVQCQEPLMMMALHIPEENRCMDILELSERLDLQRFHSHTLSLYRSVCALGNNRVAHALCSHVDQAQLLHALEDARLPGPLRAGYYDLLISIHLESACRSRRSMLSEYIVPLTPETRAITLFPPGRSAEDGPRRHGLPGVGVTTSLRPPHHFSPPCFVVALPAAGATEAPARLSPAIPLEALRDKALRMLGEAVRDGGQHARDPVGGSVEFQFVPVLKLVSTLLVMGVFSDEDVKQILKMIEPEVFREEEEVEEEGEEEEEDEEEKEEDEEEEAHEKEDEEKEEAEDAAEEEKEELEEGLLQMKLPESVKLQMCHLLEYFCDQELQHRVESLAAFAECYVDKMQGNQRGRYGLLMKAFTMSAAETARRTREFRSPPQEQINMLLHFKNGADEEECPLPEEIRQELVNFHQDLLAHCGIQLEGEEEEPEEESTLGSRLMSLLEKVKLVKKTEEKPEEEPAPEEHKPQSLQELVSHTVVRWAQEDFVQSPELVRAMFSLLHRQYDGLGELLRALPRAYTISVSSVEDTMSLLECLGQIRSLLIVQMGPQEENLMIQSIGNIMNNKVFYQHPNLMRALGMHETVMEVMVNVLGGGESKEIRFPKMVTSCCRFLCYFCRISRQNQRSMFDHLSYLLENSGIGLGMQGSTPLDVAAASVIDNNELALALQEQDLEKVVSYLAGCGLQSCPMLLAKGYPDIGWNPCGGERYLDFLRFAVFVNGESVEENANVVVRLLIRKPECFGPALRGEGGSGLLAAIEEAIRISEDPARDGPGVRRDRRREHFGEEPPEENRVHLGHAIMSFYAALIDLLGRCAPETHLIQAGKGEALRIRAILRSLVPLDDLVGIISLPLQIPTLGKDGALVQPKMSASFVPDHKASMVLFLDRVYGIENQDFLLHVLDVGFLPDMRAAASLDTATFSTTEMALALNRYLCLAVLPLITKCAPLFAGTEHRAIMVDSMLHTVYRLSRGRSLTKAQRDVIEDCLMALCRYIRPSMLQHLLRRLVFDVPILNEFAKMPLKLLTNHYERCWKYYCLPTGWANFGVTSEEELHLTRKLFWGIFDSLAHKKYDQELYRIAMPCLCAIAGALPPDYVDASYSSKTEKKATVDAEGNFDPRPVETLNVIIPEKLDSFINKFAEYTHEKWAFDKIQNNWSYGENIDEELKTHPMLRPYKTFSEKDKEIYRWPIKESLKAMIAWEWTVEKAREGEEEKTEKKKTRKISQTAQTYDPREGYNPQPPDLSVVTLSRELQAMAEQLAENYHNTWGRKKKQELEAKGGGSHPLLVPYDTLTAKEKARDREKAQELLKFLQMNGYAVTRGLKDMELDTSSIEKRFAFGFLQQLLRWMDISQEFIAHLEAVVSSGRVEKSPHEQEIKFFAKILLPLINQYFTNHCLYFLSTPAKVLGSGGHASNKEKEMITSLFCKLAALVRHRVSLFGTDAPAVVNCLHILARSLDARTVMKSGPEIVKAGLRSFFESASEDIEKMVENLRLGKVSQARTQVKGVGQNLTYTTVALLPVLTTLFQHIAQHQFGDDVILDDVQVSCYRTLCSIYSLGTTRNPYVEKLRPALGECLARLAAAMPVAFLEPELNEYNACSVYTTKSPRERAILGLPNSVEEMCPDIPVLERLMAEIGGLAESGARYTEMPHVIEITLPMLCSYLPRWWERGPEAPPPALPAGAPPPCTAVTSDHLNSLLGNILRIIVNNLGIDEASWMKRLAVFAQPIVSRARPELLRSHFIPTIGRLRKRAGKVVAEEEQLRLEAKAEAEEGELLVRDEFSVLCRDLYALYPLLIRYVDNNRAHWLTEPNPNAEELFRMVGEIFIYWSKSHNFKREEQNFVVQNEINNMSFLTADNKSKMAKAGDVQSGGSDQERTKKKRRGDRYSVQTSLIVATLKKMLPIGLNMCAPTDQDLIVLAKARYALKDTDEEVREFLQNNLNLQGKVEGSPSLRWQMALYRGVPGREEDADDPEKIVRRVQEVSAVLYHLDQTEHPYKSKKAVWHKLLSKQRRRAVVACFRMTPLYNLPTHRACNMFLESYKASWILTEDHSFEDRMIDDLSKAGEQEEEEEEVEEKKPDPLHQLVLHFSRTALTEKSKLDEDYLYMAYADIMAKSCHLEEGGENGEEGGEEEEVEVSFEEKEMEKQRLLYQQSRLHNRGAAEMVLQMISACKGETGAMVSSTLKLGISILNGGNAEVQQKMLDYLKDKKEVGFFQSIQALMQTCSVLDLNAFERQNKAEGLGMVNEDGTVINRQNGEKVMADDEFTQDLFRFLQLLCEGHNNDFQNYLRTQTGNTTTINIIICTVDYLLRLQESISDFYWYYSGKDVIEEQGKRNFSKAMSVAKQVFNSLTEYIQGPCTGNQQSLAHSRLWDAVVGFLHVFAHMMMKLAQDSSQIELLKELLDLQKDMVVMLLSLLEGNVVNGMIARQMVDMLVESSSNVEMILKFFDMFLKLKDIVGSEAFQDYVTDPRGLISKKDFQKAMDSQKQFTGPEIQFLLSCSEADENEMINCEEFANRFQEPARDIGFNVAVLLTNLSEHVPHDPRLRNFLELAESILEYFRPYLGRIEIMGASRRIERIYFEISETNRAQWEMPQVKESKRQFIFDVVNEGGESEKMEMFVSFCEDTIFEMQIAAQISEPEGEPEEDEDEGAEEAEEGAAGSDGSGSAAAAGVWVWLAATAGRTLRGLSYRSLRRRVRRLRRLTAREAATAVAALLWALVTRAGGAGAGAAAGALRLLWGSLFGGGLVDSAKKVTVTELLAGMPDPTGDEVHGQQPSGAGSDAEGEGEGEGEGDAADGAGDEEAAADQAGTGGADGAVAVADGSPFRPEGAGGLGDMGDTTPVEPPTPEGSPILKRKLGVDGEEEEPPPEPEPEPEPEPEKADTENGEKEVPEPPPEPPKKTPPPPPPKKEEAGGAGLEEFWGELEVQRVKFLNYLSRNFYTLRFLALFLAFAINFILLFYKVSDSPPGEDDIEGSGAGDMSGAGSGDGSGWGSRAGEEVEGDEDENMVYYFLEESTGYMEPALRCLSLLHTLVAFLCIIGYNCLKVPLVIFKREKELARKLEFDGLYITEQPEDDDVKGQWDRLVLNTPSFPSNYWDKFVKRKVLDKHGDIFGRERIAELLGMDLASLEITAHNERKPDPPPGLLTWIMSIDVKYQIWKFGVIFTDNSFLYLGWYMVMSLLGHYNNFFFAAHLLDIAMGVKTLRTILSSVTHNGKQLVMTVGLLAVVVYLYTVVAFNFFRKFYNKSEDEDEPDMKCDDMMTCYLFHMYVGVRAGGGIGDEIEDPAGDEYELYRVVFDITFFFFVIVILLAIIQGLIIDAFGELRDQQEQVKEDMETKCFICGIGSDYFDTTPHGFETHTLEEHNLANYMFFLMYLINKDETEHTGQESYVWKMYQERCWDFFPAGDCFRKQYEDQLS

SMILES	protection against mechanical ventilation (force-frequency relationship) ([1]; VB558 1 μM, 6 h MV)	protection against mechanical ventilation (force-frequency relationship) ([1]; VB558 10 μM, 6 h MV)	prevention of VIDD in murine model [1]	Tmax ([2]; pig, plasma, 0.25 mg/kg, read-out: time of plasmatic peak)	biodistribution [2]	dissipation of plasmatic peak [2]	significant effect (inhibition or stimulation higher than 50%) at prostanoid receptors [3]	diastolic level of calcium ([4]; 1 μM, without isoproterenol, DMD hIPSc cardiomyocytes)	RyR2 dysfunction in DMD ([4]; DMD-derived ventricular cardiomyocytes)	resting calcium under isoproterenol stimulation ([4]; hexanor, Iso 1 μM, DMD hIPSc cardiomyocytes)	Ca2+-sparks frequency / RyR1-dependent leaky behavior [5]	prevention of VIDD / diaphragm weakness (force-frequency relationship) ([1]; single IV injection of 4F4t-NeuroP 0.01-100 μM, 6 h MV)	concentration giving maximal effect in VIDD prevention ([1]; single IV injection, dose response 0.01-100 μM, 6 h MV, maximal force at 120 Hz)	distribution of fiber type (slow vs fast) [6]	muscle fibre atrophy / cross section area (CSA) [6]	RyR2 mediated Ca2+-leak in cardiomyocytes ([7]; previous study [30])	cardiac anti-arrhythmic effect, RyR2 stabilization ([7]; previously reported (ref. 21))
CC/C=C\C[C@@H]1[C@H](/C=C/C(O)CCC(=O)O)[C@@H](O)C[C@H]1O (mixture of isomers) [VB558, (E)-6-((1S,2R,3R,5S)-3,5-dihydroxy-2-((Z)-pent-2-en-1-yl)cyclopentyl)-4-hydroxyhex-5-enoic Acid]	significant protection against mechanical ventilation in a range similar to that was obtained with 4F4t-NeuroP	significant protection against mechanical ventilation in a range similar to that was obtained with 4F4t-NeuroP	prevents VIDD; also recorded: prevent with a high efficiency VIDD	5 to 10 min	fast biodistribution	dissipated rapidly within an hour	not observed at any of the receptors studied	prevented	may be prevented	full normalization of the resting calcium	–	–	–	–	–	–	–
CC/C=C\C/C=C\C/C=C\C[C@@H]1[C@H](/C=C/C(O)CCC(=O)O)[C@@H](O)C[C@H]1O (mixture of isomers) [Compound 4F4t-NeuroP, 4(RS)-4-F4t-Neuroprostane]	–	–	prevent with a high efficiency VIDD	–	–	–	–	–	–	–	full prevention of this RyR1-dependent leaky behavior	prevents diaphragm weakness induced after 6 h of mechanical ventilation; also recorded: full prevention of VIDD	about 0.3 μM	without changing the distribution of fiber type	prevents diaphragm muscle fibres atrophy after 12 hours of mechanical ventilation independently of the fibre phenotype; also recorded: prevents the reduction of cross section area (CSA), independently of the muscle fiber phenotype	able to prevent RyR2 mediated Ca^2+-leak in cardiomyocytes	the active molecule was not DHA itself but a non-enzymatic metabolite of DHA

Source: patent US20260373164A1, “4(RS)-4-F4-NEUROPROSTANE DERIVATIVES (4-F4T-NEUROP) AND THEIR USE IN TREATING VENTILATOR INDUCED DIAPHRAGMATIC DYSFUNCTION AND OTHER DISEASES” (INSTITUT NATIONAL DE LA SANTÉ ET DE LA RECHERCHE MÉDICALE, priority 2022, published 2026)
